Test results from patent US12322837B2, “Electrochemical reduction of halogenated compounds comprising a haloalkane” (Massachusetts Institute of Technology, priority 2021, dated 2025).
Values after ≈ are worked out from the molar mass of the structure shown.

Tests used:
[1] = Solubility/miscibility of reactants in DMSO or 0.1 M LiClO4/DMSO; type: physicochemical; details: for miscibility with 0.1 M LiClO4/DMSO: even at 50° C.
Source text: To understand the effect of the chain length of the RF group, the discharge profiles of Ph-NO2-C6 (o) vs. Ph-NO2-C8 (o) and Ph-CN-C6 (p) vs. Ph-CN-C8 (p) were compared. As is shown in FIG. 5, up to 11 e- or 15 e- transfer per molecule (calculated based on capacities) can be obtained during discharge for C6 or C8 containing reactants, respectively. […] For example, Ph-CN-C6 (p) is liquid and miscible with DMSO at RT, but its C8 counterpart is solid at RT and is only soluble at elevated temperatures (e.g., 50° C.).

[2] = Ionic conductivity of NO2-Ph-SF5-containing electrolytes; type: physicochemical
Source text: Theoretical capacities correspond to 8 e^−per molecule. Capacities increased from 292 to 362 mAh·gsub-stack^−1 as concentration increased from 3 M to 4 M, beyond which further gains were negligible. The maximum gravimetric energy of 1085 Wh·kgsub-stack^−1 was obtained at 4.5 M. Capacity and energy decreased with concentrations exceeding 4.5 M due to diminishing supporting solvent (DMSO, ˜16 wt. % of the catholyte at 5 M), which led to significant decline in ionic conductivity from 6.4 to 0.6 mS·cm^−1 from 0.1 M to 5 M (FIG. 24). Additionally, low DMSO content decreases the ability to solubilize LiF, making electrode passivation effects more severe. Capacities remained constant at ˜362 mAh·gsub-stack^−1 from 0.3-1.0 mA·cm^−2 (0.01 C-0.04 C) and decreased moderately thereafter up to 3 mA·cm^−2 (0.12 C), indicating excellent rate capability.

## FC(F)(F)c1ccccc1C=CC(F)(F)C(F)(F)C(F)(F)C(F)(F)C(F)(F)C(F)(F)F [Ph-CF3—C6 (o)]
[1]
  miscibility with 0.1 M LiClO4/DMSO: negligible miscibility

## N#Cc1ccc(C=CC(F)(F)C(F)(F)C(F)(F)C(F)(F)C(F)(F)C(F)(F)C(F)(F)C(F)(F)F)cc1 [Ph-CN-C8 (p)]
[1]; 50° C.
  solubility limit in 0.1 M LiClO4/DMSO: 800 mM (≈ 438 mg/mL)
[1]; RT
  solubility / reachable concentration in 0.1 M LiClO4/DMSO: not soluble

## N#Cc1ccc(C=CC(F)(F)C(F)(F)C(F)(F)C(F)(F)C(F)(F)C(F)(F)F)cc1 [Ph-CN-C6 (p)]
[1]; RT
  miscibility with DMSO: miscible

## O=[N+]([O-])c1ccccc1C=CC(F)(F)C(F)(F)C(F)(F)C(F)(F)C(F)(F)C(F)(F)C(F)(F)C(F)(F)F [Ph-NO2—C8 (o)]
[1]; RT
  solubility / reachable concentration in 0.1 M LiClO4/DMSO: 2000 mM (≈ 1130 mg/mL)

## O=[N+]([O-])c1ccc(S(F)(F)(F)(F)F)cc1 [NO2-Ph-SF5, 4-Nitrophenylsulfur pentafluoride]
[2]; 0.1 M NO2-Ph-SF5
  ionic conductivity of electrolyte: 6.4 mS·cm^−1
[2]; 5 M NO2-Ph-SF5
  ionic conductivity of electrolyte: 0.6 mS·cm^−1

## FC(F)(F)c1ccc(C=CC(F)(F)C(F)(F)C(F)(F)C(F)(F)C(F)(F)C(F)(F)F)cc1 [Ph-CF3—C6 (p)]
[1]
  miscibility with 0.1 M LiClO4/DMSO: negligible miscibility
